Columns and labels:
Metformin + Foretinib = compound: CN(C)C(=N)NC(=N)N [Metformin] + COc1cc2c(Oc3ccc(NC(=O)C4(C(=O)Nc5ccc(F)cc5)CC4)cc3F)ccnc2cc1OCCCN1CCOCC1 [Foretinib] (partner 0.25 µM); assay: relative viability (nuclei count vs DMSO), 5 days (fraction); higher = more cells survive
Procedure, shortened: (§1)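 Relative viability equals treated-well nuclei counts divided by vehicle-well nuclei counts. Counts came from 4× images of lung cancer cell lines grown in 1536-well plates for 5 days after pin-tool dosing on the day after seeding. Dosing used one drug alone or a fixed anchor-drug dose plus five library-drug doses (not always all listed) in √10 steps, and values are medians of duplicate plates.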

Apatinib + Tozasertib = compound: N#CC1(c2ccc(NC(=O)c3cccnc3NCc3ccncc3)cc2)CCCC1 [Apatinib] + Cc1cc(Nc2cc(N3CCN(C)CC3)nc(Sc3ccc(NC(=O)C4CC4)cc3)n2)n[nH]1 [Tozasertib] (partner 0.1 µM); assay: as above
Procedure, shortened: as §1

Cell Line | relative viability (Metformin + Foretinib; first compound 10 µM) | relative viability (Metformin + Foretinib; first compound 31.62 µM) | relative viability (Metformin + Foretinib; first compound 100 µM) | relative viability (Metformin + Foretinib; first compound 316.23 µM) | relative viability (Metformin + Foretinib; first compound 1000 µM) | relative viability (Apatinib + Tozasertib; first compound 0.08 µM) | relative viability (Apatinib + Tozasertib; first compound 0.253 µM) | relative viability (Apatinib + Tozasertib; first compound 0.8 µM) | relative viability (Apatinib + Tozasertib; first compound 2.53 µM) | relative viability (Apatinib + Tozasertib; first compound 8 µM)
NCI-H2126 | 1.12 | 1.18 | 1.22 | 0.862 | 1.15 | 0.953 | 0.861 | 0.797 | 0.709 | 0.607
CAL-12T | 1.25 | 1.32 | 1.04 | 1.04 | 0.76 | 0.298 | 0.34 | 0.241 | 0.198 | 0.191
NCI-H358 | 0.726 | 0.723 | 0.658 | 0.732 | 0.813 | 0.113 | 0.103 | 0.0953 | 0.108 | 0.0888
HCC-44 |  |  |  |  |  | 1.23 | 1.12 | 0.75 | 0.844 | 0.494
EKVX | 0.456 | 1.03 | 0.886 |  | 0.303 | 0.369 | 0.404 | 0.395 | 0.224 | 0.135
NCI-H1734 | 0.844 | 0.896 | 0.95 | 0.798 | 0.935 | 0.246 | 0.283 | 0.219 | 0.231 | 0.231
NCI-H1395 | 0.965 | 1 | 1.04 | 0.883 | 0.997 | 0.734 | 0.832 | 0.722 | 0.661 | 0.52
SW 900 | 0.919 | 0.884 | 0.736 | 0.846 | 0.882 | 0.504 | 0.54 | 0.442 | 0.323 | 0.2
NCI-H1975 | 1.16 | 1.1 | 1.08 | 1.06 | 1.21 | 0.864 | 0.691 | 0.253 | 0.157 | 0.157
Calu-6 | 0.809 | 0.878 | 0.917 | 0.795 | 0.821 |  |  |  |  | 
EBC-1 | 0.0914 | 0.09 |  | 0.103 | 0.0951 |  |  |  |  | 
NCI-H596 | 0.832 | 0.855 | 0.85 | 0.861 | 0.89 | 1.05 | 0.965 | 0.854 | 0.705 | 0.631
NCI-H1650 | 1.41 | 1.34 | 1.42 | 1.3 | 1.18 |  | 0.334 | 0.329 | 0.257 | 0.26
NCI-H1944 | 0.881 | 0.995 | 1.03 | 0.924 | 0.996 | 0.23 | 0.229 | 0.239 | 0.238 | 0.223
HCC-827 |  | 0.899 | 0.974 | 0.807 | 0.889 | 0.381 | 0.388 | 0.43 | 0.413 | 0.311
NCI-H441 |  | 0.879 | 0.799 | 0.788 | 0.77 | 0.672 | 0.569 | 0.538 | 0.533 | 0.428
LCLC-103H | 0.823 | 1.09 | 0.881 | 0.781 | 0.923 | 0.443 | 0.491 | 0.429 | 0.42 | 0.357

Cell Line | relative viability (Metformin + Foretinib; first compound 10 µM) | relative viability (Metformin + Foretinib; first compound 31.62 µM) | relative viability (Metformin + Foretinib; first compound 100 µM) | relative viability (Metformin + Foretinib; first compound 316.23 µM) | relative viability (Metformin + Foretinib; first compound 1000 µM) | relative viability (Apatinib + Tozasertib; first compound 0.08 µM) | relative viability (Apatinib + Tozasertib; first compound 0.253 µM) | relative viability (Apatinib + Tozasertib; first compound 0.8 µM) | relative viability (Apatinib + Tozasertib; first compound 2.53 µM) | relative viability (Apatinib + Tozasertib; first compound 8 µM)
HARA |  | 1.03 | 1.21 | 1 | 1.09 | 0.119 | 0.129 | 0.121 | 0.0894 | 0.0993
201T |  | 1.21 | 1.38 | 1.01 | 0.824 | 0.96 | 0.878 | 0.897 | 0.808 | 0.615
NCI-H2009 | 1.21 | 1.31 | 1.31 | 1.13 | 1.04 | 0.856 | 0.792 | 0.687 | 0.58 | 0.38
HCC-78 | 0.752 | 0.674 | 0.894 | 0.662 | 0.79 | 0.477 | 0.333 | 0.535 | 0.289 | 0.317
LCLC-97TM1 | 0.912 | 0.808 | 0.875 | 0.895 | 1.02 | 0.226 | 0.255 | 0.173 | 0.2 | 0.165
NCI-H661 | 0.809 | 0.877 | 0.879 | 0.834 | 0.916 | 0.333 | 0.325 | 0.357 | 0.388 | 0.392
NCI-H650 | 1.18 | 1.31 | 1.23 | 1.24 | 1.18 | 0.769 | 0.777 | 0.724 | 0.644 | 0.486
NCI-H1915 |  | 1.04 | 1.15 | 1.07 | 1.18 | 0.422 | 0.445 | 0.43 | 0.35 | 0.267
COR-L23 | 0.88 | 0.861 | 0.863 | 0.836 | 0.975 | 0.263 | 0.165 | 0.149 | 0.143 | 0.129
NCI-H3122 | 0.946 | 0.951 | 0.944 | 0.806 | 0.919 | 0.551 | 0.368 | 0.432 | 0.374 | 0.367
IA-LM | 1.18 | 1.27 | 1.43 | 1.11 | 1.28 |  |  |  |  | 
NCI-H1648 |  |  |  |  |  | 0.484 | 0.346 | 0.563 | 0.366 | 0.197
NCI-H1563 | 0.99 | 1.02 | 1.09 | 1.01 | 1.05 |  |  |  |  | 
NCI-H1703 | 0.497 | 0.504 | 0.549 | 0.474 | 0.496 |  |  |  |  | 
NCI-H1299 | 1.09 | 1.12 | 1.14 | 1.11 | 1.13 |  |  |  |  | 
NCI-H522 |  |  |  |  |  | 0.48 | 0.487 | 0.693 | 0.504 | 0.567
A549 | 0.867 | 0.9 | 0.9 | 0.853 | 0.944 |  |  |  |  | 
